Assay results taken from patent publication EP2982680B1, “PROTAMINE PEPTIDOMIMETIC, AND PHARMACEUTICALLY ACCEPTABLE SALTS AND USE THEREOF” (Academy of Military Medical Sciences, priority 2013, dated 2014).
Where a SMILES comes first, the peptide text is derived from it. Where no end group is shown, it is not given here.

What was measured:
[1] = Water solubility of synthesized peptides
[2] = amino acid; cited from earlier work
heparin = test: Antagonism of protamine-like peptides against heparin anticoagulation in vitro (heparin neutralization, rabbit whole blood clotting); design: species or system New Zealand rabbits; conditions: for Amount of neutralized heparin (U/mg) Mean ± SD: average from five tests; for Amount of neutralized heparin (U/mg) Mean ± SD / Clotting time / Amount of neutralized heparin (U/mg) 1 / Amount of neutralized heparin (U/mg) 2 / Amount of neutralized heparin (U/mg) 3 / Amount of neutralized heparin (U/mg) 4 / Amount of neutralized heparin (U/mg) 5: rabbit whole blood added with heparin; for I (Anti-heparin index): concentration of polypeptide/1 unit of heparin, lower index = better antagonism; for Clotting time: 37 °C, blank control 10.62±0.49; for Amount of neutralized heparin (U/mg) 1: repeat 1 of 5; for Amount of neutralized heparin (U/mg) 1 / Amount of neutralized heparin (U/mg) 2 / Amount of neutralized heparin (U/mg) 3 / Amount of neutralized heparin (U/mg) 4 / Amount of neutralized heparin (U/mg) 5: test sample 1 mg per mL; for Amount of neutralized heparin (U/mg) 2: repeat 2 of 5; for Amount of neutralized heparin (U/mg) 3: repeat 3 of 5; for Amount of neutralized heparin (U/mg) 4: repeat 4 of 5; for Amount of neutralized heparin (U/mg) 5: repeat 5 of 5
Text: Reference standard of heparin was exactly weighed and then dissolved into several solutions with different concentrations by adding 0.9% sodium chloride solution according to the marked potency. The increment of heparin units per mL between two solutions having adjacent concentrations should be similar with no more than five units.
The test sample was the protamine-like peptide. If the test sample was in a powder form, it was accurately weighed on the basis of dry sample. Then, a solution of 0.9% sodium chloride was added thereto to provide a solution containing 1 mg of test sample per mL.
Eight small dry clean teat tubes with the same diameter (0.8 × 3.8 cm) were picked. Tube 1 and Tube 8 were used as the blank control into which 0.2 mL of 0.9% sodium chloride solution was added. Tube 2 to Tube 7 were used as the ones with test samples into each of which 0.1 ml of test solution was added together with 0.1 ml of heparin standard dilution having one concentration mentioned above. The mixture was well mixed immediately. An appropriate amount (0.8 ml) of whole blood freshly drawn from rabbits was added into these eight test tubes described above and then well mixed immediately to avoid generation of bubbles. Timing began at that time and the test tubes were all placed in a thermostatic water bath at 37 ± 0.5 °C. The interval between blood sampling and tube incubation in the thermostatic water bath should not be longer than two minutes. If the plasma was used, then 0.7 mL of plasma was added to each of the test tubes described above and then the test tubes were placed into a thermostatic water bath at 37 ± 0.5 °C to warm up for 5 to 10 minutes. Then, into each test tube, 0.1 mL of 1% calcium chloride solution was added and immediately mixed to avoid generation of bubbles. At that time, timing began. The test tubes were observed and the time until coagulation was recorded.
The clotting time in one control tube should not be more than 1.35 times longer than that in the other control tube. Among test tubes where the clotting time was no longer than 150% of the average coagulating time in two control tubes, the tube with the highest concentration of heparin was used as the endpoint tube.
The test was repeated for five times. The concentration of heparin in the endpoint tube was measured in all five tests, and the deviation was not allowed to be higher than 10 units. The average from five tests was deemed as the number of units of the heparin neutralized by 1 mg of the test sample (dry product) (the amount of neutralized heparin).
The anticoagulant time of heparin, i.e. the clotting time from the addition of the series of protamine-like peptides, were recorded where the clotting time in tubes with plasma but not heparin was considered as the control clotting time. The average value in each coagulation test was calculated, and ratio of the concentration in nmol of the added potamine-like peptide to 1 IU of neutralized heparin was regarded as the anti-heparin index (I) of the protamine-like peptide. Anti-heparin index = concentration of polypeptide/1 unit of heparin (nmol/U). [formula]

N=C(N)NCCC[C@H](NC(=O)[C@H](CCCNC(=N)N)NC(=O)[C@H](CCCNC(=N)N)NC(=O)[C@H](CCCNC(=N)N)NC(=O)[C@H](CCCNC(=N)N)NC(=O)[C@H](CCCNC(=N)N)NC(=O)[C@@H](N)CCCNC(=N)N)C(=O)O [R7, (R)7]
water solubility [1]: good water solubility

N[C@@H](Cc1c[nH]cn1)C(=O)O [Histidine]
isoelectric point (pI) [2]: 7.59

N=C(N)NCCC[C@H](NC(=O)[C@H](CCCNC(=N)N)NC(=O)[C@H](CCCNC(=N)N)NC(=O)[C@H](CCCNC(=N)N)NC(=O)[C@H](Cc1c[nH]cn1)NC(=O)[C@H](CCCNC(=N)N)NC(=O)[C@H](CCCNC(=N)N)NC(=O)[C@H](CCCNC(=N)N)NC(=O)[C@H](CCCNC(=N)N)NC(=O)[C@H](CCCNC(=N)N)NC(=O)[C@H](CCCNC(=N)N)NC(=O)[C@H](CCCNC(=N)N)NC(=O)[C@H](CCCNC(=N)N)NC(=O)[C@H](CCCNC(=N)N)NC(=O)[C@@H](N)CCCNC(=N)N)C(=O)O [R15-5]
water solubility [1]: good water solubility

KKKKKKKKKKKKKKK [K15, (K)15]
water solubility [1]: good water solubility

RRRRR [R5, (R)5]
water solubility [1]: good water solubility

NCCCC[C@H](N)C(=O)O [Lysine]
isoelectric point (pI) [2]: 9.74

N=C(N)NCCC[C@H](NC(=O)[C@H](CCCNC(=N)N)NC(=O)[C@@H](N)CCCNC(=N)N)C(=O)O [R3, (R)3] (H-Arg-Arg-Arg-OH)
water solubility [1]: good water solubility

RRRRRRRRRRRRRHR [R15-2]
Amount of neutralized heparin (U/mg) Mean ± SD (heparin): 110±1.342 U/mg
I (Anti-heparin index) (heparin): 4.66 nmol/U
Clotting time (heparin): 13.35 ± 0.56 min
Amount of neutralized heparin (U/mg) 1 (heparin): 110 U/mg
Amount of neutralized heparin (U/mg) 2 (heparin): 113 U/mg
Amount of neutralized heparin (U/mg) 3 (heparin): 110 U/mg
Amount of neutralized heparin (U/mg) 4 (heparin): 110 U/mg
Amount of neutralized heparin (U/mg) 5 (heparin): 110 U/mg
water solubility [1]: good water solubility

RRRRRRRRRRRRRRRRRRRR [R20, (R)20]
water solubility [1]: good water solubility

N=C(N)NCCC[C@H](N)C(=O)O [Arginine]
isoelectric point (pI) [2]: 10.76

RRRRRRHRRRRRRRR [R15-8]
Amount of neutralized heparin (U/mg) Mean ± SD (heparin): 108.4±1.32 U/mg
I (Anti-heparin index) (heparin): 3.93 nmol/U
Clotting time (heparin): 14.35 ± 0.38 min
Amount of neutralized heparin (U/mg) 1 (heparin): 110 U/mg
Amount of neutralized heparin (U/mg) 2 (heparin): 105 U/mg
Amount of neutralized heparin (U/mg) 3 (heparin): 105 U/mg
Amount of neutralized heparin (U/mg) 4 (heparin): 112 U/mg
Amount of neutralized heparin (U/mg) 5 (heparin): 110 U/mg
water solubility [1]: good water solubility
